Assay results taken from patent publication US5830910A (priority 1995, dated 1998).
“Also recorded” adds a separate entry of the source.

Assays:
Format in all cases: cell-based, rat
[1] = tested on: cultured hippocampal neurons; conditions: 100 nM, added 1 h before 50 μM Aβ; 48 h
Source text: (§1) Dissociated embryonic rat hippocampal cell cultures were established and maintained. All procedures conformed with the NIH Guide for the Care and Use of Laboratory Animals and were approved by the University of Kentucky Animal Care and Use Committee. Cultures were maintained on a polyethyleneimine-coated substrate in plastic 35-mm dishes or 96 wall plates (for cell survival studies) or glass-bottom 35-mm dishes (for [Ca^2+ ]i imaging studies). The cell density was ^~ 70-100 cells/mm^2. Cells were maintained in Eagle's minimum essential medium supplemented 10% with fetal bovine serum and containing 20 mM sodium pyruvate. […] Aβ25-35 (Bachem, lot ZJ744) and Aβ1-40 (Bachem, lot ZK600) were stored in the lyophilized form, and stocks were prepared immediately before use by dissolving the peptide at a concentration of 1 mM in sterile distilled water. […] Glutamate and colchicine (Sigma) were prepared as 200-500x stocks in saline. Cytochalasins D and E (Sigma) and calcium ionophore 4-bromo-A23187 (Calbiochem) were prepared as 500x stocks in dimethyl sulfoxide. Vitamin E (α-tocopherol; Sigma) was prepared as a 500x stock in ethanol. Nordihydroguaiaretic acid and FeSo4 were prepared as 500x stocks in sterile water.
(§2) Neuronal survival was quantified by counting viable neurons in the same microscope fields (10x objective) immediately before experimental treatment and at time points after treatment. In addition, cells were grown in 96-well plates and Alamar blue fluorescence (Alamar Laboratories)was quantified by using a fluorescence plate reader. Alamar Blue is a non-fluorescent substrate that, after reduction by cell metabolites, becomes fluorescent. Usually neurons that died in the time intervals (20-48 h) between examination points were absent. Viability of the remaining neurons was assessed by morphological criteria. Neutrons with intact neurites of uniform diameter and a soma with a smooth, round appearance were considered viable, whereas neurons with fragmented neurites and a vacuolated or swollen soma were considered nonviable. Survival values were expressed as percentages of the initial number of neurons present before experimental treatment. Statistical comparisons were made using ANOVA and Scheffe post-hoc tests for pairwise comparisons.
FIG. 12. (A) Cultures were pretreated for 1 h with vehicle 0.2% dimethyl sulfoxide (Control) or 100 nM cytochalasin D (CyD) and were exposed to the indicated concentrations of Aβ25-35 for 48 h. Data are mean and SEM values of determinations made in four separate cultures.
(B) Cultures were pretreated for 1 h with the indicated concentrations of cytochalasin D and then exposed to 50 μM Aβ25-35; parallel cultures were exposed to cytochalasin D alone (Control) . Data are mean and SEM values of determinations made in four separate cultures.
FIG. 14. Cultures were exposed to 100 nM colchicine; 50 μM Aβ; 100 nM colchicine plus 50 μM Aβ; 100 nM cytochalasin E (CyE) plus Aβ (colchicine and cytochalasin E were added 1 h before Aβ); neuronal survival was assessed 48 h later. Data are mean and SEM values of determinations made in four separate cultures. *p<0.01, compared with values for control or colchicine alone. **p<0.01, compared with value for cultures exposed to Aβ alone.

[2] = tested on: growth cone motility of hippocampal neurons; test: growth cone motility
[3] = tested on: cultured hippocampal neurons; test: iron (FeSO4) neurotoxicity; conditions: 100 nM, 1 h preincubation
Source text: as §1, §2
FIG. 8. Cultures were preincubated 1 h in the presence of 0.5% dimethylsulfoxide (control), 100 nM cytochalasin D, 50 μg/ml vitamin E (VitE), or 2 μM nordihydroguairetic acid (NDGA). Cultures were then exposed for 6 h to the indicated concentrations of FeSO4 and neuronal survival was quantified. Values represent the means and SEM of determinations made in four separate cultures. *P<0.001 compared to value for cultures exposed to 100 μM FeSO4 alone.

[4] = tested on: cultured hippocampal neurons; test: neurotoxicity of combined exposure to Aβ and glutamate; conditions: 100 nM; 50 μM Aβ plus 20 μM glutamate, 48 h
Source text: Dissociated embryonic rat hippocampal cell cultures were established and maintained. All procedures conformed with the NIH Guide for the Care and Use of Laboratory Animals and were approved by the University of Kentucky Animal Care and Use Committee. Cultures were maintained on a polyethyleneimine-coated substrate in plastic 35-mm dishes or 96 wall plates (for cell survival studies) or glass-bottom 35-mm dishes (for [Ca^2+ ]i imaging studies). The cell density was ^~ 70-100 cells/mm^2. Cells were maintained in Eagle's minimum essential medium supplemented 10% with fetal bovine serum and containing 20 mM sodium pyruvate. […]
Neuronal survival was quantified by counting viable neurons in the same microscope fields (10x objective) immediately before experimental treatment and at time points after treatment. In addition, cells were grown in 96-well plates and Alamar blue fluorescence (Alamar Laboratories)was quantified by using a fluorescence plate reader. […] Viability of the remaining neurons was assessed by morphological criteria. […] Survival values were expressed as percentages of the initial number of neurons present before experimental treatment. […]
FIG. 13. […] Neuronal survival was assessed 48 h after treatment. […]

[5] = tested on: cultured hippocampal neurons; test: hydrogen peroxide neurotoxicity
Source text: as §1
as §2, with “Usually neurons that died in the time intervals (20-48 h) between examination points were absent.” left out
FIG. 15. […] Cultures were pretreated for 1 h with vehicle (Control), 100 nM cytochalasin D (CyD), or 50 μg/ml vitamin E (vE) and then exposed for 20 h to the indicated concentrations of hydrogen peroxide. Data are mean and SEM values of determinations made in four separate cultures.

| Structure (SMILES) | effect on Aβ neurotoxicity [1] | growth cone motility [2] | effect on neuronal loss induced by iron [3] | effect on neurotoxicity of combined Aβ and glutamate [4] | effect on neuronal killing by hydrogen peroxide ([5]; 100 nM, 1 h pretreatment, 20 h) | antioxidant activity ([5]; suggested from hydrogen peroxide test) |
| --- | --- | --- | --- | --- | --- | --- |
| COc1cc2c(c(OC)c1OC)-c1ccc(OC)c(=O)cc1[C@@H](NC(C)=O)CC2 [Colchicine, colchicine, reference compound] | did not protect neurons against Aβ toxicity |  |  |  |  |  |
| C=C1[C@@H](C)[C@H]2[C@H](Cc3ccccc3)NC(=O)[C@]23[C@H](OC(C)=O)/C=C/[C@@](C)(O)C(=O)[C@@H](C)C/C=C/[C@H]3[C@@H]1O [Cytochalasin D, cytochalasin D] |  | inhibit growth cone motility | not significantly altered | attenuated significantly | not altered; also recorded: does not protect neurons against hydrogen peroxide toxicity | little or no antioxidant activity |
